Tests used:
[1] = target: T1, 2′-deoxyribonucleoside kinase from Drosophila melanogaster (DmdNK) (Drosophila melanogaster, UniProt Q9XZT6); assay: spectrophotometric coupled-enzyme kinase assay, DmdNK; assay type: biochemical; details: wild type DmdNK, kcat/KM data FIG. 10A/11A, agrees with FACS FIG. 11B
T1 construct: made in house; host or cells: E. coli, pET-14b (Novagen)
T1 sequence (Q9XZT6 1-250): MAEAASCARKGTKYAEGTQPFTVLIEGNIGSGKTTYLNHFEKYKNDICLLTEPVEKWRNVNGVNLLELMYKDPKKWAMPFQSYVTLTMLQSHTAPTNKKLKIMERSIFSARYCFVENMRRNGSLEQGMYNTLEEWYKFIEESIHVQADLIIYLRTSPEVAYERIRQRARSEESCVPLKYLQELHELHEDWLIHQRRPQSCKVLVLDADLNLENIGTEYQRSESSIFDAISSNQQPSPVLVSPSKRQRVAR
Excerpt: To investigate the kinetic properties of the above-described fNAs in vitro, a pET-based protein overexpression system was established for the production and purification of milligram quantities of individual dNKs. The genes for human 2′-deoxycytidine kinase (dCK) and fruitfly dNK (DmdNK), as well as the thymidine kinase from the bacterium Thermotoga maritime (TmTK) were subcloned into pET-14b (Novagen), an IPTG-inducible protein overexpression system that also introduces a poly-His tag at the target protein's amino terminus. Following protein overexpression, the tag enables one-step purification of the corresponding proteins on Ni-affinity resin, yielding enzyme of >95% purity as determined by SDS-PAGE. This protein overexpression system was successfully applied for the listed wild type kinases above, as well as for isolating engineered enzymes.
A quantitative measurement of individual enzymes' substrate specificity is possible via the determination of the kinetic parameters KM and kcat. Consistent with the literature, each kinase will be described by its relative activity for a fNA in comparison to its corresponding NA and thymidine: kcat(fNA)/kcat(NA), as well as by its relative catalytic efficiency: kcat/KM(fNA)/kcat/KM(NA). […]
(§1) Experimentally, the kinase-catalyzed phosphotransfer reaction was monitored at 37° C. via a spectrophotometric, couple-enzyme assay (as described in Munch-Petersen, B., Knecht, W., Lenz, C., Sondergaard, L. and Piskur, J. (2000) functional expression of a multisubstrate deoxyribonucleoside kinase from Drosophila melanogaster and its C-terminal deletion mutants. J Bio chem, 275, 6673-6679; Schelling, P., Folkers, G. and Schapozza, L. (2001) A spectrophotometric assay for quantitative determination of kcat of herpes simplex virus type 1 thymidine kinase substrates. Anal Biochem, 295, 82-87, which are hereby incorporated by reference herein). […] The consumption of NADH can be monitored spectrophotometrically at 340 nm. […]

[2] = target: T2, human 2′-deoxycytidine kinase (dCK) (Homo sapiens, UniProt P27707); assay: spectrophotometric coupled-enzyme kinase assay, dCK; assay type: biochemical; details: FIG. 10A
T2 construct: made in house; host or cells: E. coli, pET-14b (Novagen)
T2 sequence (P27707 whole entry): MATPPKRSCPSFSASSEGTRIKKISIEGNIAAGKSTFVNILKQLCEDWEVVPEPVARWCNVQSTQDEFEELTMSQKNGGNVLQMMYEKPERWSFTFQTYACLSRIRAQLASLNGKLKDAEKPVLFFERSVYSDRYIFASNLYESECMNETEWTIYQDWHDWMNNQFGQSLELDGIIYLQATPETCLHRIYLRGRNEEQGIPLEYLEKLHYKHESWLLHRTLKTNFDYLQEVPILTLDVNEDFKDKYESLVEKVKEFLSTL
Excerpt: (§2) To investigate the kinetic properties of the above-described fNAs in vitro, a pET-based protein overexpression system was established for the production and purification of milligram quantities of individual dNKs. The genes for human 2′-deoxycytidine kinase (dCK) and fruitfly dNK (DmdNK), as well as the thymidine kinase from the bacterium Thermotoga maritime (TmTK) were subcloned into pET-14b (Novagen), an IPTG-inducible protein overexpression system that also introduces a poly-His tag at the target protein's amino terminus. […]
A quantitative measurement of individual enzymes' substrate specificity is possible via the determination of the kinetic parameters KM and kcat. […]
as §1

[3] = target: T3, thymidine kinase from Thermotoga maritima (TmTK) (Thermotoga maritima, UniProt Q9WYN2); assay: kinetic experiments with type-II kinases; assay type: biochemical
T3 construct: made in house; host or cells: E. coli, pET-14b (Novagen)
T3 sequence (Q9WYN2 whole entry): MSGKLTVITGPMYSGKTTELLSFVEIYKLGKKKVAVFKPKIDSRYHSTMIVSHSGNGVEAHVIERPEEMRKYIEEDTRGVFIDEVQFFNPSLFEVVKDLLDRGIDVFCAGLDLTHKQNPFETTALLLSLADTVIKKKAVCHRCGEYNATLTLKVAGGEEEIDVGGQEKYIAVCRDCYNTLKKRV
Excerpt: as §2, §1

[4] = tested on: E. coli TOP10 and E. coli KY895; assay: fNA uptake by fluorescence microscopy, strains without exogenous kinase; assay type: cell-based; details: both strains, no exogenous type-I kinase
Procedure: To validate the accumulation of the fluorescent nucleotides inside bacterial cells, a series of fNA-uptake experiments was conducted in two E. coli strains. The E. coli TOP10 (Invitrogen) carries a native type-II thymidine kinase while E. coli KY895 is a thymidine kinase-deficient laboratory strain.

[5] = tested on: E. coli KY895 with pDIM-tDmdNK and TOP10 with pBAD-tDmdNK; assay: fNA accumulation by fluorescence microscopy, bacteria expressing DmdNK; assay type: cell-based; details: plasmid-encoded exogenous DmdNK, both strains, FIG. 8
Excerpt: FIG. 8 illustrates the fluorescence microscopy of E. coli KY895 with pDIM-tDmdNK (left) and TOP10 with pBAD-tDmdNK (right) in the presence of 1 (100× magnification; excitation: Hg-lamp at 325 nm). Noticeable in the two images of FIG. 8 is the highly variable fluorescence intensity in the E. coli KY895/pDIM sample, caused by disproportionate expression levels of the lac-promoter system. On the contrary, the arabinose-controlled pBAD system in E. coli TOP10 facilitates steadier kinase expression levels, resulting in a more uniform fluorescence signal.

[6] = tested on: E. coli expressing DmdNK from pDIM, pBAD or pET vectors; assay: flow cytometry (FACS) of E. coli overexpressing DmdNK; assay type: cell-based; details: pDIM vector in E. coli KY895, FIG. 9
Procedure: In a typical flow cytometry experiment, bacterial cultures are grown to mid-log phase and protein expression is induced for 4 h, followed by the addition of the fN or fNA to the culture broth. Cells are incubated for another 2 h prior to centrifugation and three wash-cycles with PBS buffer to reduce the fluorescence background. Cultures are then analyzed on a Becton Dickinson FACSVantage SE, equipped with a UV laser.
Several experiments were conducted to validate the design for a FACS-based high-throughput screening system for engineered dNKs. A first set of experiments addressed three main questions: a) what is an appropriate host/expression system for kinases in conjunction with fNAs (FIG. 9), b) are the fluorescent properties of the above-described fNAs sufficient for FACS, and c) what is the dynamic range of this screening system? […] In contrast, both the pET and pBAD system yield populations with a more significant portion of “positives”, cells with 10 to 20-fold higher fluorescence than background.

substrate activity / phosphorylation by DmdNK [1]	SMILES	substrate activity / phosphorylation by dCK [2]	phosphorylation by type-II kinases [3]	fluorescence signal in cells [4]	accumulation of fluorescent probe inside cells [5]	fluorescent cell population [6]
only background phosphorylation	Cc1cc2cn(C3CC(N=[N+]=[N-])C(CO)O3)c(=O)nc2o1 (centres unmarked) [compound 16, 3-(4-azido-5-(hydroxymethyl)-tetrahydrofuran-2-yl)-6-methylfuro[2,3-d]pyrimidin-2(3H)-one]	–	–	–	–	–
no detectable activity	Cc1cc2cn(C3CCC(CO)O3)c(=O)nc2[nH]1 (centres unmarked) [compound 25, 3-(5-(hydroxymethyl)-tetrahydrofuran-2-yl)-6-methyl-3H-pyrrolo[2,3-d]pyrimidin-2(7H)-one]	–	–	–	–	–

SMILES	substrate activity / phosphorylation by DmdNK [1]	substrate activity / phosphorylation by dCK [2]	phosphorylation by type-II kinases [3]	fluorescence signal in cells [4]	accumulation of fluorescent probe inside cells [5]	fluorescent cell population [6]
Cc1cc2cn([C@H]3C[C@H](O)[C@@H](CO)O3)c(=O)nc2o1 [compound 1, 6-methyl-3-(β-D-2′-deoxyribofuranosyl)furano-[2,3-d]pyrimidin-2-one]	strong activity and good substrate and good	no activity	no detectable phosphorylation	no fluorescence signal beyond the cellular autofluorescence	accumulation of the fluorescent probe inside both strains	small subpopulation with fluorescence above background

From patent US20100112561A1, “FLUORESCENT NUCLEOSIDE ANALOGUES” (priority 2006, published 2010)
